The results in this text go back to publication PMC10954600, “A novel laccase from Trametes polyzona with high performance in the decolorization of textile dyes” (AMB Express, 2024).

For this assay, the system named is TP-Lac2. To be noted: 25 mM tartrate buffer, pH 3.5, 50 °C; 0.05-1.5 mM ABTS.

With `CCn1c(=NN=c2sc3cc(S(=O)(=O)O)ccc3n2CC)sc2cc(S(=O)(=O)O)ccc21` [ABTS], the Michaelis constant (Km) (commonly the concentration of substrate that gives half-maximal velocity) was determined as 250 ± 40 µM.
